Measurements taken from ChEMBL document CHEMBL1152000, “Anti-allergy agents. 3. Angular tricyclic ether derivatives of the 1,8-naphthyridin-2(1H)-one ring system” (1994).

Legend:
Format in all cases: functional
[1] = organism: Cavia porcellus; assay: In vitro percent inhibition of LTD4 release from sensitized guinea pig lung fragment at dose of 3 uM
[2] = tested on: Cavia porcellus; assay: In vivo percent inhibition of ovalbumin induced bronchospasm in sensitized guinea pig after peroral administration at dose of 2 mg/kg for single dose; settings: route oral
[3] = organism: Cavia porcellus; assay: In vitro percent inhibition of LTD4 release from sensitized guinea pig lung fragment at dose of 1 uM
[4] = tested on: Cavia porcellus; assay: In vivo percent inhibition of ovalbumin induced bronchospasm in sensitized guinea pig after peroral administration at dose of 0.5 mg/kg for single dose; settings: route oral
[5] = tested on: Cavia porcellus; assay: In vivo percent inhibition of ovalbumin induced bronchospasm in sensitized guinea pig after peroral administration at dose of 0.25 mg/kg for single dose; settings: route oral
[6] = tested on: Cavia porcellus; assay: In vivo percent inhibition of ovalbumin induced bronchospasm in sensitized guinea pig after peroral administration at dose of 1 mg/kg for single dose; settings: route oral
[7] = tested on: Cavia porcellus; assay: In vivo percent inhibition of ovalbumin induced bronchospasm in sensitized guinea pig after peroral administration at dose of 0.5 mg/kg for multiple dose; settings: route oral
[8] = organism: Cavia porcellus; assay: In vitro percent inhibition of LTD4 release from sensitized guinea pig lung fragment at dose of 10 uM
[9] = tested on: Cavia porcellus; assay: In vivo percent inhibition of ovalbumin induced bronchospasm in sensitized guinea pig after peroral administration at dose of 6.25 mg/kg for multiple dose; settings: route oral
[10] = tested on: Cavia porcellus; assay: In vivo percent inhibition of ovalbumin induced bronchospasm in sensitized guinea pig after peroral administration at dose of 25 mg/kg for single dose; settings: route oral
[11] = tested on: Cavia porcellus; assay: In vivo percent inhibition of ovalbumin induced bronchospasm in sensitized guinea pig after peroral administration at dose of 12 mg/kg for single dose; settings: route oral
[12] = tested on: Cavia porcellus; assay: In vivo percent inhibition of ovalbumin induced bronchospasm in sensitized guinea pig after peroral administration at dose of 12.5 mg/kg for multiple dose; settings: route oral
[13] = tested on: Cavia porcellus; assay: In vivo percent inhibition of ovalbumin induced bronchospasm in sensitized guinea pig after peroral administration at dose of 3 mg/kg for single dose; settings: route oral
[14] = tested on: Cavia porcellus; assay: In vivo percent inhibition of ovalbumin induced bronchospasm in sensitized guinea pig after peroral administration at dose of 1 mg/kg for multiple dose; settings: route oral
[15] = tested on: Cavia porcellus; assay: In vivo percent inhibition of ovalbumin induced bronchospasm in sensitized guinea pig after peroral administration at dose of 10 mg/kg for single dose; settings: route oral
[16] = tested on: Cavia porcellus; assay: In vivo percent inhibition of ovalbumin induced bronchospasm in sensitized guinea pig after peroral administration at dose of 2 mg/kg for multiple dose; settings: route oral
[17] = tested on: Cavia porcellus; assay: In vivo percent inhibition of ovalbumin induced bronchospasm in sensitized guinea pig after peroral administration at dose of 3.13 mg/kg for multiple dose; settings: route oral
[18] = tested on: Cavia porcellus; assay: In vivo percent inhibition of ovalbumin induced bronchospasm in sensitized guinea pig after peroral administration at dose of 5 mg/kg for single dose; settings: route oral

Molecule COc1ccc(-n2c(=O)c3c(c4cccnc42)OCC3)cc1 has an inhibition at 3 µM [1] of 17%.
For CC1Cc2c(c3cccnc3n(-c3cccc(Cl)c3)c2=O)O1 (stereo unspecified), the inhibition in vivo at 2 mg/kg [2] was 38% and the inhibition at 1 µM [3] was 64%.
For O=c1c2c(c3cccnc3n1-c1cccc(Cl)c1)OCCCC2, the inhibition in vivo at 0.5 mg/kg [4] was 62%, the inhibition in vivo at 0.25 mg/kg [5] was 27% and the inhibition in vivo at 1 mg/kg [6] was 74%. The inhibition in vivo at 0.5 mg/kg [7] was 50%, the inhibition in vivo at 2 mg/kg [2] was 85% and the inhibition at 3 µM [1] was 62%. The inhibition at 1 µM [3] was 100%.
Cc1ccc(-n2c(=O)c3c(c4cccnc42)OCC3)cc1 gave an inhibition at 10 µM [8] of 59% and an inhibition at 3 µM [1] of 28%.
O=c1c2c(c3cccnc3n1-c1ccccc1)OCC2 gave an inhibition in vivo at 6.25 mg/kg [9] of 65%, an inhibition in vivo at 25 mg/kg [10] of 79% and an inhibition in vivo at 12 mg/kg [11] of 86%. It also gave an inhibition at 10 µM [8] of 72%, an inhibition in vivo at 12.5 mg/kg [12] of 90% and an inhibition in vivo at 3 mg/kg [13] of 42%. The inhibition at 3 µM [1] was 54%.
COc1ccc(-n2c(=O)c3c(c4cccnc42)OCCC3)cc1 showed an inhibition at 3 µM [1] of 28%.
O=c1c2c(c3cccnc3n1-c1ccc(Cl)cc1)OCC2 gave an inhibition at 3 µM [1] of 33%.
With O=c1c2c(c3cccnc3n1-c1ccc(Cl)cc1)OCCC2 the inhibition at 3 µM [1] was 33%.
In the case of CC1Cc2c(c3cccnc3n(-c3ccccc3)c2=O)O1 (stereo unspecified), the inhibition at 10 µM [8] is reported as 60%.
With Cc1ccc(-n2c(=O)c3c(c4cccnc42)OCCC3)cc1 the inhibition at 3 µM [1] was 27%.
With O=c1c2c(c3cccnc3n1-c1ccccc1)OCCCC2 the inhibition in vivo at 2 mg/kg [2] was 71% and the inhibition at 3 µM [1] was 75%.
O=c1c2c(c3cccnc3n1-c1cccc(Cl)c1)OCC2 gave an inhibition in vivo at 1 mg/kg [14] of 21%, an inhibition in vivo at 10 mg/kg [15] of 93% and an inhibition in vivo at 2 mg/kg [2] of 87%. It also gave an inhibition at 3 µM [1] of 71% and an inhibition in vivo at 2 mg/kg [16] of 62%.
In the case of O=c1c2c(c3cccnc3n1-c1ccc(Cl)c(Cl)c1)OCCC2, the inhibition at 3 µM [1] is reported as 48%.
O=c1c2c(c3cccnc3n1-c1ccccc1)OCCC2 showed an inhibition in vivo at 6.25 mg/kg [9] of 51%, an inhibition in vivo at 25 mg/kg [10] of 62% and an inhibition in vivo at 3.13 mg/kg [17] of 20%. For the same molecule, the inhibition at 10 µM [8] was 62%, the inhibition in vivo at 12.5 mg/kg [12] was 43% and the inhibition at 3 µM [1] was 26%.
For O=c1c2c(c3cccnc3n1-c1ccc(Cl)c(Cl)c1)OCC2, the inhibition in vivo at 5 mg/kg [18] was 0%, the inhibition at 10 µM [8] was 63% and the inhibition at 3 µM [1] was 62%.
